Source: paper PMC3485228, “Structure-Based Engineering Increased the Catalytic Turnover Rate of a Novel Phenazine Prenyltransferase” (PLoS ONE, 2012)

Molecular target: T1, EpzP (Streptomyces virginiae, UniProt E5KWG9)
T1 construct: pET28a His6-tag, E. coli Rosetta2; tag thrombin-cleaved for structures (EpzPm: lysines reductively methylated, 18 of 19)
T1 sequence (E5KWG9 1-302): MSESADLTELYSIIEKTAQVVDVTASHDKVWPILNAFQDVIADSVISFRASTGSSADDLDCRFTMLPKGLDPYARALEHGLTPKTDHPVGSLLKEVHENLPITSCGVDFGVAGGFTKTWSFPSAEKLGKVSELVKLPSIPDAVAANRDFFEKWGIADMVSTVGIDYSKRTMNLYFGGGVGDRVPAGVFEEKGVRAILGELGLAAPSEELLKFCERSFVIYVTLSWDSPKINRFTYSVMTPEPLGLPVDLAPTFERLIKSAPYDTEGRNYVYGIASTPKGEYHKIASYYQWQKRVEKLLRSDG
Assay: X-ray crystal structure ([…] A)
Type: binding
Details: lysine-methylated EpzP; crystal soaked with 5 mM DMSPP, hydrolysed to SPP; diphosphate site; acidic pH

O=P(O)(O)OP(=O)(O)S (stereo not shown) [S-thiolodiphosphate]
X-ray crystal structure (1.67 A): revealed the presence of a S-thiolodiphosphate (SPP) moiety in the diphosphate binding site
